Assays:
FLT3 = molecular target: T1, FLT3 (Homo sapiens, UniProt P36888); experiment: ADP Glo Kinase Assay, FLT3, 50 nM inhibitor; type: biochemical; details: 50 nM inhibitor conc.; means of triplicates; read-out: Percent Inhibition (%) FLT3
T1 sequence (P36888 27-993): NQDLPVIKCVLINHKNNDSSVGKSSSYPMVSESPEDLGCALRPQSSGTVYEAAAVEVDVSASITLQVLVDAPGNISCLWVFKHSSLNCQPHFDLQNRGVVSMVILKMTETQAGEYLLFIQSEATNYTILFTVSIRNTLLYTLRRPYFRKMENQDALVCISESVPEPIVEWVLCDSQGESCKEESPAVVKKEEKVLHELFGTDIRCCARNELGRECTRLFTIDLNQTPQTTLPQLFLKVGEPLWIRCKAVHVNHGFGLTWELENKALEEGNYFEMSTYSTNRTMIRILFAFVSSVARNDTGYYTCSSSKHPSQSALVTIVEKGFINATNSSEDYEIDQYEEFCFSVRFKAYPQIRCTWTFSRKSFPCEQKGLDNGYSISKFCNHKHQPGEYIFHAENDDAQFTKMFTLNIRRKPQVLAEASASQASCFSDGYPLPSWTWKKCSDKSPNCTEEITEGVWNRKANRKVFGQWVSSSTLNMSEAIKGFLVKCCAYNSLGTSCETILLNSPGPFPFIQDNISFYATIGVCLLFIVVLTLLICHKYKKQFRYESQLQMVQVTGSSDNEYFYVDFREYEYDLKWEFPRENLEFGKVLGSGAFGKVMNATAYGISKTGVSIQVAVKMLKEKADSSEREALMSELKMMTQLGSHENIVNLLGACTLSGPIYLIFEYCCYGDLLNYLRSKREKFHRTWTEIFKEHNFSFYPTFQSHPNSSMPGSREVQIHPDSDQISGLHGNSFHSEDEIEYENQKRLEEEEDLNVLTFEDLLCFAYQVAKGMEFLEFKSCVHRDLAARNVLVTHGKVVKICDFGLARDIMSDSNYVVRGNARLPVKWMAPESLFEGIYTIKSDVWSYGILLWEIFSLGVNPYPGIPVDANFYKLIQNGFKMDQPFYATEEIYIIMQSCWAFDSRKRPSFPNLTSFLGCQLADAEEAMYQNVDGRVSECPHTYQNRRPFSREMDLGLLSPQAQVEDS
Method: (§1) With the amide kinase inhibitor library established, kinase inhibition and AML cell line (Molm-14, which harbors FLT3-ITD) growth inhibition were analyzed (Table 1). More specifically, Haspin and FLT3 inhibition were evaluated in-house via ADP Glo Kinase Assay (Promega, Madison, WI). […] Values reported are means of triplicates.
(§2) Briefly, the ADP-Glo Kinase Assay Kit was used to determine inhibition of haspin. Kinase Buffer (SignalChem Cat #K01-09; 25 mM MOPS, pH 7.2, 12.5 mM β-glycerol-phosphate, 25 mM MgCl2, 2 mM EDTA) was supplemented with dithiothreitol (DTT) (0.2 mM) and bovine serum albumin (BSA) (40 μg/mL) immediately prior to use. Reaction volumes of 5 μL containing 9 ng/μL kinase, 10 μM ATP, 50 nM inhibitor, and the appropriate peptide substrate (20 μM) were incubated for 3 hours, and then quenched with an equal volume (5 μL) of GLO reagent. After 40 minutes, 10 μL DET reagent was added and incubated for 1 hour before visualization on a Cytation™ 5 Cell Imaging Multi-Mode Reader (BioTek).

[1] = test system: histone H3 (Thr3) phosphorylation by haspin; experiment: Western blot, histone H3 (Thr3) phosphorylation by haspin in Molm-14 cells; type: cell-based, human; details: 24 hours, HSK205 5, 20 or 100 nM, gilteritinib 100 nM
Method: Whether Compound HSK205 does indeed inhibit haspin in AML cells was then evaluated, and immunoblotting was performed to confirm inhibition of histone H3 (Thr3)phosphorylation by haspin (FIG. 13A). […] The samples were subsequently analyzed for the phosphorylation of histone H3 (Thr3).
Acute myeloid leukemia cells (Molm-14) were incubated with various concentrations of compound as specified. Cells were collected and lysed, and protein concentrations were quantified relative to BSA standards. After protein denaturation, proteins were separated via SDS-PAGE electrophoresis and transferred to NC membranes. After blocking, overnight incubation with specific primary antibodies, and room temperature incubation for 2 hours with peroxidase-conjugated secondary antibodies, peroxidase activity was detected with SuperSignal West Pico reagents (Thermo Scientific) using a CCD camera LAS-4000 (Fujifilm). Bands were normalized using housekeeping gene, Actin. Values reported represent the means of triplicates and error bars represent SD. All specific antibodies were purchased from Cell Signaling.

haspin = molecular target: T2, haspin (Homo sapiens, UniProt Q8TF76); experiment: ADP Glo Kinase Assay, haspin, 50 nM inhibitor; type: biochemical; details: 50 nM inhibitor conc.; means of triplicates; read-out: Percent Inhibition (%) Haspin
T2 sequence (Q8TF76 1-798): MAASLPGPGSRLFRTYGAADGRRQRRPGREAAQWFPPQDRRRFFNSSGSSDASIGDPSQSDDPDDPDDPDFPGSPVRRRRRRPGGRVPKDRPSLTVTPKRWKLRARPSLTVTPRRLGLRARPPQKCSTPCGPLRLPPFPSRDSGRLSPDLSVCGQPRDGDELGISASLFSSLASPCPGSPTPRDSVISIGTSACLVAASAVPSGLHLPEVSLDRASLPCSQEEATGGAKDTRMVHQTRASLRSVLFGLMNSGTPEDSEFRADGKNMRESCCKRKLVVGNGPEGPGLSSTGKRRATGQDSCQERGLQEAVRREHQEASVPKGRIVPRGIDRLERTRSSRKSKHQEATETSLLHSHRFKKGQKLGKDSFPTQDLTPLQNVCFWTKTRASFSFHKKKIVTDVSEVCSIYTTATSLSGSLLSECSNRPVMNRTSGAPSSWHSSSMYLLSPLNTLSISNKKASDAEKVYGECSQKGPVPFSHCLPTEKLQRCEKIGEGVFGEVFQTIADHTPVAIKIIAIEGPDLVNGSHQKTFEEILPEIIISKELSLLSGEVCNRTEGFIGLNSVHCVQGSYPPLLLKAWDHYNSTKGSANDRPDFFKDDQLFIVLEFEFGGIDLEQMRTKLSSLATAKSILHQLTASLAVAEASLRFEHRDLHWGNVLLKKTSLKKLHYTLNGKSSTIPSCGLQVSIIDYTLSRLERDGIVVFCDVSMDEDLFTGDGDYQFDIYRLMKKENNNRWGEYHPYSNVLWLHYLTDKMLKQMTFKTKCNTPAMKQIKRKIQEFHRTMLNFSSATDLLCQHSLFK
Method: as §1, §2

Molm-14 cells (FLT3-ITD) = experiment: AML cell line growth inhibition (CellTiter-Blue), 50 nM; type: cell-based; details: Homo sapiens, 50 nM inhibitor conc., means of triplicates, read-out: Percent Inhibition (%) Molm-14 growth
Method: as §1
More specifically, cells were cultured to confluence in RPMI medium supplemented with 10% fetal bovine serum and 1× Penicillin-Streptomycin (Gibco™). Cells were plated at 5,000 cells/well in 96 well plates. After 24-hour incubation at 37° C. in a 5% CO2 incubator, compounds diluted in the same media were added to the indicated final concentration and allowed to incubate at 37° C. in a 5% CO2 incubator for 72 hours. Viability was determined using CellTiter-Blue® Cell Viability Assay (Promega, Madison, WI) with absorbance readings at 570 nm performed on a Cytation™ 5 Cell Imaging Multi-Mode Reader (BioTek) 3 hours after addition. Appropriate vehicle and cell-free controls were included. GI50 readings were confirmed by two scientists on two separate days.

Q: Which results are given for CCc1nc(C(N)=O)c(Nc2ccc(N3CCC(N4CCN(C)CC4)CC3)c(OC)c2)nc1NC1CCOCC1 [gilteritinib, reference compound]?
A: inhibition at 0.05 µM (FLT3): 93%; phosphorylation of histone H3 (Thr3) [1]: did not display haspin inhibition; inhibition at 0.05 µM (haspin): 11%; inhibition at 0.05 µM (Molm-14 cells (FLT3-ITD)): 87%

Source: patent US20250320203A1, “4-(3H-PYRAZOLO[4,3-F]QUINOLIN-7-YL)-N-(2-(DIMETHYLAMINO)ETHYL)BENZAMIDE- OR HYDROXAMIC ACID COMPOUNDS, COMPOSITIONS, AND METHODS OF USE” (Purdue Research Foundation, priority 2022, published 2025)
